From US20120316144A1, “ANTIFUNGAL AGENT” (priority 2010, published 2012)

What was measured:
[1] = test system: Malassezia; assay: Antifungal (Malassezia) paper disk test of fractionated ingredients of mastic normal-hexane extract with squalene; format: cell-based; settings: for diameter of antiproliferative circle, First time / diameter of antiproliferative circle, Second time / diameter of antiproliferative circle, Average: Malassezia, Mueller-Hinton media, fraction 5 mg/disk + squalene 25 mg/disk; for diameter of antiproliferative circle, Average: average of two runs; for anti-Malassezia activity (in words): combination with squalene, summary of Table 4
Procedure: The fractions fractionated in the first example were respectively dissolved in acetone. Paper disks for antibiotic assay which are the same as the paper disks for antibiotic assay used in the third example were impregnated with the obtained respective fraction solutions of 5 mg/disk. Moreover, squalene was added to each of the paper disks for antibiotic assay by 25 mg/disk, to prepare disks to be tested. Then, the respective disks to be tested were vacuum-dried to eliminate the acetone. Further, the Malassezia prepared to be approximately 10^6 CFU/ml was applied to the Mueller-Hinton media. Next, the respective disks to be tested were placed on the Mueller-Hinton media, and cultured for two days under an aerobic condition at 37° C. Then, the diameters (mm) of antiproliferative circles formed around the respective disks to be tested were measured.

[2] = test system: Malassezia; assay: Antifungal (Malassezia) paper disk test of mastic normal-hexane extract and squalene; format: cell-based; settings: Mueller-Hinton media, squalene 25 mg/disk alone
Procedure: Mastic normal-hexane extract (MH) was dissolved in acetone. Then, paper disks for antibiotic assay which are the same as the paper disks for antibiotic assay used in the third example were impregnated with the obtained MH solution, to prepare a disk to be tested impregnated with the MH solution of 5 mg/disk, a disk to be tested impregnated with the MH solution of 10 mg/disk, and a disk to be tested impregnated with the MH solution of 20 mg/disk. These disks to be tested were prepared two each, respectively. Further, the S solution, which was obtained by dissolving squalene (S) in acetone, was added to each of some disks to be tested prepared in this way by 25 mg/disk, to prepare disks of mixture of the mastic normal-hexane extract and squalene (MH+S) as well. Further, as standard controls, paper disks for antibiotic assay which are the same as the paper disks for antibiotic assay used in the third example were impregnated with the S solution of 25 mg/disk, to prepare a disk to be tested. Then, the respective disks to be tested were vacuum-dried to eliminate the acetone. Further, the Malassezia prepared to be approximately 10^6 CFU/ml was applied to the Mueller-Hinton media. […] Then, the diameters (mm) of antiproliferative circles formed around the respective disks to be tested were measured.

Row | Structure (SMILES) | diameter of antiproliferative circle, First time [1] [mm] | diameter of antiproliferative circle, Second time [1] [mm] | diameter of antiproliferative circle, Average [1] [mm] | anti-Malassezia activity (in words) [1] | Antiproliferative Circles (mm) [2] [mm]
1 | CC1(C)C=C2C(=CC[C@]3(C)C2CC[C@@H]2[C@@]4(C)CCC(=O)C(C)(C)[C@@H]4CC[C@]23C)CC1 (stereo partly shown) [Fr. 1, 3-oxo-28-norolean-16,18-diene] | 25 | 22 | 23.5 | potent anti-Malassezia activity | –
2 | CC1(C)CC[C@]2(C=O)CC[C@]3(C)C(=CC[C@@H]4[C@@]5(C)CCC(=O)C(C)(C)[C@@H]5CC[C@]43C)C2C1 (stereo partly shown) [Fr. 3, olean-12-en-3,28-dione] | 25 | 25 | 25 | potent anti-Malassezia activity | –
3 | CC(C)=CCC[C@H](C)[C@@H]1CC[C@]2(C)C3=C(CC[C@@]12C)[C@@]1(C)CC[C@H](O)C(C)(C)[C@@H]1CC3 [Fr. 5-1, Tirucallol] | – | – | – | potent anti-Malassezia activity | –
4 | CC1(C)CC[C@]2(C)CC[C@]3(C)C(=CC[C@@H]4[C@@]5(C)CC[C@H](O)C(C)(C)[C@@H]5CC[C@]43C)C2C1 (stereo partly drawn) [Fr. 5-2, β-amylin] | – | – | – | potent anti-Malassezia activity | –
5 | CC1(C)CCC2(O)CC[C@]3(C)C(=CC[C@@H]4[C@@]5(C)CCC(=O)C(C)(C)[C@@H]5CC[C@]43C)C2C1 (stereo partly shown) [Fr. 6, 3-oxo-17-hydroxy-norolean-12-ene] | 21 | 19 | 20 | potent anti-Malassezia activity | –
6 | CC(C)=CCC[C@](C)(O)[C@H]1CC[C@]2(C)C1CCC1[C@@]3(C)CCC(=O)C(C)(C)[C@@H]3CC[C@]12C (stereo partly shown) [Fr. 8, 3-oxo-20-hydroxy-dammar-24-ene] | 25 | 24 | 24.5 | potent anti-Malassezia activity | –
7 | CC(C)=CCC/C(C)=C/CC/C(C)=C/CC/C=C(\C)CC/C=C(\C)CCC=C(C)C [S, squalene] | – | – | – | – | 11
